Laboratory results published in patent US7265139B2, “RXR activating molecules” (Incyte San Diego Inc., priority 2001, dated 2007).

Molecular target: T1, RXR receptor (Homo sapiens, UniProt P19793)
T1 construct: expressed in transfected cells
T1 sequence (P19793 1-462): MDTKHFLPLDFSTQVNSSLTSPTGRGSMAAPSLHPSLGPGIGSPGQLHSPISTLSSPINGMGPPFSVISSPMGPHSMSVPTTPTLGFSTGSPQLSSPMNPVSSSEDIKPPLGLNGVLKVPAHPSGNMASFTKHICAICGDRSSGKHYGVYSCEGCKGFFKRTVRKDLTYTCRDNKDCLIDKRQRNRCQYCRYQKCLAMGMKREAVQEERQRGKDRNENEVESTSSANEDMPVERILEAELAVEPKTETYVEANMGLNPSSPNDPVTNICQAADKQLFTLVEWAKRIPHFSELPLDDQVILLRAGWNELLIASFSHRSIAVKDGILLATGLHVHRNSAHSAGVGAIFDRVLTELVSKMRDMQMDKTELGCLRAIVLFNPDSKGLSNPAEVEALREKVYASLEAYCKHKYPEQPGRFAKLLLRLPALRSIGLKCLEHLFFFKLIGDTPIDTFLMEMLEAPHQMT
Assay: RXR activation (transient transfection reporter assay)
Assay type: cell-based
Settings: 1 μM compared to 9-cis-RA at equal concentration
Excerpt: RXR agonists activate the RXR receptor when interacting with RXR by binding to its binding pocket. This activation can be independent of whether the agonist, while interacting with portions of the ligand binding pocket, also interacts with side pocket 1. Activation, also often referred to as transcriptional activation, of RXR by agonists can be measured by a number of commonly used assays where the effect of the agonist ligand interacting with the RXR ligand binding pocket is to stimulate or induce transcription of a gene or genes in a cell. In one particular embodiment, transient transfection experiments (as described essentially by Zhang, et al. (1996) Negative Regulation of Peroxisome Proliferator—Activated Receptor—γ Gene Expression Contributes to the Antiadipogenic effects of Tumor Necrosis Factor—α. Mol. Endo. 10:1457-1456) can be used. In these cases, full length RXR proteins are expressed in living cells. Alternatively, hybrid proteins that contain a portion of another DNA binding domain and the ligand binding portion of the human RXRα receptor can be expressed in living cells instead of the full length RXR protein. Such hybrid proteins can bind to and activate specific reporter genes introduced into the same living cell and activation of such reporter genes is measured. The assays described here are very commonly used today by people skilled in the art of molecular biology experimenting. Transient transection assays are often used instead of ligand binding assays and can serve to measure or estimate an affinity of an RXR agonist ligand for RXR protein. The effective dose fifty (ED50, also called EC50) is the concentration of the ligand necessary to lead to one half maximal activation of the reporter gene in a living cell. Compounds that show 60% of the activity of the agonist 9-cis retenoic acid at 10^−6 M can be considered an RXR activator/agonist. Compounds which show 70% 80% 90% of the activity of the agonist 9-cis retinoic acid are also provided.
To confirm that the computer modeling/design of a compound does result in an RXR activator or RXR agonist, i.e. a compound that leads to RXR activation or transcriptional activation, commonly used assays can be applied, where the effect of the agonist or activator, interacting with the RXR ligand binding pocket is to stimulate or induce transcription of a gene or genes in a cell. In one particular embodiment, transient transfection experiments (as described essentially by Zhang, et al. (1996) Negative Regulation of Peroxisome Proliferator—Activated Receptor—γ Gene Expression Contributes to the Antiadipogenic effects of Tumor Necrosis Factor—α. Mol. Endo. 10:1457-1456) can be used. In these cases, full length RXR proteins are expressed in living cells. Alternatively, hybrid proteins that contain a portion of another DNA, binding domain and the ligand binding portion of the human RXRα receptor can be expressed in living cells instead of the fall length RXR protein. Such hybrid proteins can bind to and activate specific reporter genes introduced into the same living cell and activation of such reporter genes is measured (Brand, A. H. & Perrimon, 1993, Development, 118:401-415; Moya-Camarena, S. Y. et.al., 1999, J. Lipid Res., 40:1426:1433; Yi, Y. W. et al., 2000, Biochem. Biophys. Res. Commun., 272:193-198, each are herein incorporated by reference at least for material related to reporter assays). These assays not only measure binding of the ligand to its target, which could also be measured by an in vitro binding assay, but also measure the agonistic or activator activity of the compound. In such an assay, new compounds are compared to a standard activator like compound I or the natural agonist of RXR: 9-cis retinoic acid (see Example 7). For instance, all compounds that show at a given concentration at least 60% of the activity of 9-cis retinoic acid can be considered useful activators.

## Cc1cc2c(cc1-c1cc(C=C3SC(=O)NC3=O)ccc1OC(F)(F)F)C(C)(C)CCC2(C)C [Compound 1]
  RXR Activation: 110%
